Source: patent US20230257351A1, “SUBSTITUTED N-[…] HAVING P2X4 RECEPTOR ANTAGONISTIC ACTIVITY” (Bayer Aktiengesellschaft, priority 2020, published 2023)

Key:
rat P2X4 = molecular target: T1, rat P2X4 (Rattus norvegicus, UniProt P51577); test: FLIPR Method for Rat P2X4 1321N1 Astrocytoma Cells; assay type: cell-based; details: 1321N1 stably expressing rat P2X4; agonist MgATP 5 μM (EC80)
T1 construct: expressed in transfected cells
T1 sequence (P51577 1-388): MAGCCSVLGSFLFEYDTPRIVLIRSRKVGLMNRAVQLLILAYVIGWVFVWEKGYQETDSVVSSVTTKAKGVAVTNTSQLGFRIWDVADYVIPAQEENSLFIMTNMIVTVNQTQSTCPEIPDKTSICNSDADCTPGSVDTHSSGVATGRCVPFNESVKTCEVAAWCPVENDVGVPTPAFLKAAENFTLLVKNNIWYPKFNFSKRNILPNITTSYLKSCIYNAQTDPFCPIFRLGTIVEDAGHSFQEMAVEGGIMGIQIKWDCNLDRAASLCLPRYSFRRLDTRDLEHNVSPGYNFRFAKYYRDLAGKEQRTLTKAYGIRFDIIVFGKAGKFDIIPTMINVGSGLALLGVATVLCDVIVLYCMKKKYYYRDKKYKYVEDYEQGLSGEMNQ
Procedure, shortened: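 1321N1 cells stably expressing rat P2X4, Fluo8-AM loaded; compounds (25 μM to 1 nM final, ten concentrations) preincubated 30 min at room temperature, then MgATP added at 5 μM (EC80). Calcium fluorescence read on FLIPR before and after agonist; triplicate data normalized to agonist control, four-parameter fit gives IC50.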

[1] = test system: intraplantar Complete Freund's Adjuvant (CFA)-induced acute inflammatory pain; test: CFA Inflammation Model in Rats with Pain Behaviour Read Out; assay type: in vivo, male Sprague Dawley rats; details: for PWT 2 hour-post drug: mean PWT
Procedure: Compound was tested in the model of intraplantar Complete Freund's Adjuvant (CFA)-induced acute (48-hours setting) inflammatory pain in male Sprague Dawley rats. Briefly, 25 μl of CFA at 1 mg/ml was injected into the plantar surface of one hind paw. Mechanical hyperalgesia was measured using the Pressure Application Measurement apparatus (Ugo Basile, Gemonio, Italy). A linearly increasing pressure was applied to an area of approximately 50 mm^2 of the plantar side of the hind paw until a behavioural response (paw withdrawal) was observed or until the pressure reached 1000 grams of force (gf). The pressure at which the behavioural response occurred was recorded as the “Paw Withdrawal Threshold” (PWT). Both CFA-injected and contralateral PWTs were determined for each rat, in each treatment group and at each time point of the studies. The measurements were performed blinded. […] Compound or vehicle (10% DMSO, 40% Solutol, 50% water for injection, vol/vol) were dosed via oral route (p.o.) once daily (QD) or twice daily (BID) during 3 days, starting before CFA injection. Data were expressed as the mean PWT for each treatment group and at each time point. PWT data were analysed by performing a two way ANOVA with repeated measures (time×treatment). Planned comparison of means (each versus vehicle) was performed by using a Dunnett's post hoc test, provided that a main effect was detected. For p values less than 0.05, the results were deemed to be statistically significant.

[2] = test system: neuropathic mechanical allodynia induced by CCI surgery; test: Chronic Constriction Injury (CCI) Neuropathic Pain Model in Rats with Pain Behavior Read Out; assay type: in vivo, male Sprague-Dawley rats; details: rat CCI, von Frey, BID p.o. days 0 through 9
Procedure: Aim of the study was to test the efficacy of example 68 at ameliorating neuropathic mechanical allodynia. Male Sprague-Dawley rats were subject to chronic constriction injury of the sciatic nerve to induce neuropathic pain. Of those rats, 10 per group were assigned to treatment conditions involving BID drug administration for 10 days and behavioral assessment of mechanical sensitivity for allodynia with von Frey testing (vF). Behavior was assessed pre- and postdosing on Days 0, 2, 5, and 9. Rats were treated with Vehicle or test article BID on days 0 through 9, and rats in the gabapentin treatment group received gabapentin SID on days 0, 2, 5, and 9 in conjunction with behavioral assessment.
As vehicle Solutol/DMSO/WFI (40/10/50) was employed. Application volume for the per oral administration was 10 ml/kg.
Neuropathy was induced in male Sprague-Dawley rats by tying four loose ligatures of chromic gut around the common sciatic nerve in deeply anesthetized rats like described in Bennett, G. J., and Y. K. Xie. “A Peripheral Mononeuropathy in Rat That Produces Disorders of Pain Sensation like Those Seen in Man.” Pain 33 (1988): 87-107.
Mechanical allodynia was measured using 8 Semmes-Weinstein filaments (Stoelting©; Wood Dale, Ill., USA) with varying stiffness (0.4, 0.6, 1.0, 2.0, 4.0, 6.0, 8.0, and 15 g) according to the up-down method1. Animals were placed in individual acrylic chambers on a metal mesh surface and allowed to acclimate to their surroundings for a minimum of 15 minutes before testing. Each filament was presented perpendicular to the plantar surface with sufficient force to cause slight buckling against the paw and held for approximately 6 seconds or until a positive response is noted (paw sharply withdrawn).
Testing was initiated with the 2.0 g filament. In the absence of a paw withdrawal response, the next stronger stimulus was presented. In the event of paw withdrawal, the next weaker stimulus was used. […]
The 50% response threshold is calculated using the formula: […]

IC50 (rat P2X4): 0.233 µM
Rat P2X4 1321N1 Astrocytoma Cells (FLIPR Assay) avg Efficacy (rat P2X4): 89%
Structure (SMILES): CC(=O)N(c1ccc(F)c(F)c1)c1cc(NC(=O)Cc2ccc(F)cc2Cl)ccn1 [Example 68, N-{4-[2-(2-chloro-4-fluorophenyl)acetamido]pyridin-2-yl}-N-(3,4-difluorophenyl)acetamide]
PWT 2 hour-post drug ([1]; rat CFA, 10 mg/kg BID p.o. during 3 days): 630 gf
PWT 2 hour-post drug ([1]; rat CFA, 30 mg/kg BID p.o. during 3 days): 648 gf
PWT 2 hour-post drug ([1]; rat CFA, 100 mg/kg BID p.o. during 3 days): 759 gf
pain after treatment ([1]; rat CFA, 10, 30 and 100 mg/kg doses BID, 2 hours after last administration): significantly reduced pain
development of inflammatory pain after the injection of CFA ([1]; rat, oral administration BID during 3 days): prevented the development of inflammatory pain
mechanical allodynia induced by CCI surgery [2]: decreased mechanical allodynia
50% paw withdrawal threshold ([2]; 30 and 100 mg/kg (FIG. 1)): increased 50% paw withdrawal threshold significantly
